Test results taken from patent US8138211B2, “Isothiazolyloxyphenylamidines and their use as fungicides” (Bayer Cropscience AG, priority 2009, dated 2012).

Test system: Cochliobolus miyabeanus
Experiment: Cochliobolus test (rice)/protective
Conditions: active compound concentration of 250 ppm, protective, evaluation 4 days after inoculation
Method: • Solvent: 28.5 parts by weight of acetone • Emulsifier: 1.5 parts by weight of alkylaryl polyglycol ether
One day after the treatment, the plants are inoculated with an aqueous spore suspension of Cochliobolus miyabeanus. The plants are then placed in a greenhouse at 100% relative atmospheric humidity and 25° C.
Evaluation is carried out 4 days after the inoculation.

| Compound | efficacy [%] |
| --- | --- |
| CCN(C)C=Nc1cc(C)c(Oc2snc(C(C)(C)C)c2C#N)cc1C [compound 6] | ≥ 80 |

Test system: Pyricularia oryzae
Experiment: not given
Assay type: in vivo
Conditions: active compound concentration of 250 ppm; rice, protective; evaluation 7 days after inoculation

| Compound | efficacy [%] |
| --- | --- |
| CCN(C)C=Nc1cc(C)c(Oc2snc(C(C)(C)C)c2C#N)cc1C [compound 6] | ≥ 80 |

Test system: not listed separately
Experiment: logP by HPLC on reversed-phase columns (C18), EEC Directive 79/831 Annex V.A8
Assay type: physicochemical
Conditions: pH 2.7
Method: The logP values were measured in accordance with EEC Directive 79/831 Annex V.A8 by HPLC (High Performance Liquid Chromatography) on reversed-phase columns (C18), using the method below: ^[a] The determination was carried out in the acidic range at pH 2.3 using the mobile phases 0.1% aqueous phosphoric acid and acetonitrile linear gradient from 10% acetonitrile to 95% acetonitrile. ^[b] The LC-MS determination in the acidic range was carried out at pH 2.7 using the mobile phases 0.1% aqueous formic acid and acetonitrile (comprising 0.1% formic acid) linear gradient from 10% acetonitrile to 95% acetonitrile ^[c] The LC-MS determination in the neutral range was carried out at pH 7.8 using the mobile phases 0.001 molar ammonium bicarbonate solution and acetonitrile linear gradient from 10% acetonitrile to 95% acetonitrile. Calibration was carried out using unbranched alkan-2-ones (having 3 to 16 carbon atoms) with known logP values (determination of the logP values by the retention times using linear interpolation between two successive alkanones).

| Compound | chromatographic logP |
| --- | --- |
| Cc1cc(Oc2cc(-c3ccccc3)ns2)c(C)cc1N [2,5-dimethyl-4-[(3-phenylisothiazol-5-yl)oxy]aniline] | 3.6 |
| Clc1snc(-c2ccccc2)c1Cl [4,5-dichloro-3-phenylisothiazole] | 4.44 |
| Cc1cc(Oc2snc(-c3ccccc3)c2Br)c(Cl)cc1N [4-[(4-bromo-3-phenylisothiazol-5-yl)oxy]-5-chloro-2-methylaniline] | 4.41 |
| Cc1cc(Oc2snc(-c3ccccc3)c2Cl)c(C)cc1N [4-[(4-chloro-3-phenylisothiazol-5-yl)oxy]-2,5-dimethylaniline] | 4.22 |
| Cc1cc(Oc2snc(Cc3ccc(Cl)cc3)c2C#N)c(C)cc1N [5-(4-amino-2,5-dimethylphenoxy)-3-(4-chlorobenzyl)isothiazole-4-carbonitrile] | 4.03 |
| N#Cc1c(Cc2ccc(Cl)cc2)nsc1Cl [5-chloro-3-(4-chlorobenzyl)isothiazole-4-carbonitrile] | 3.87 |
| Clc1cc(-c2ccccc2)ns1 [5-chloro-3-phenylisothiazole] | 3.82 |
| CCCN(C)/C=N/c1cc(C)c(Oc2snc(C(C)(C)C)c2C#N)cc1C [No. 4, N′-{4-[(3-tert-butyl-4-cyano-1,2-thiazol-5-yl)oxy]-2,5-dimethylphenyl}-N-methyl-N-propylimidoformamide] | 2.19 |
| CCN(C)/C=N/c1cc(C)c(Oc2snc(Cc3ccc(Cl)cc3)c2C#N)cc1C [No. 27, N′-(4-{[3-(4-chlorobenzyl)-4-cyano-1,2-thiazol-5-yl]oxy}-2,5-dimethylphenyl)-N-ethyl-N-methylimidoformamide] | 2.39 |
| CCN(C)/C=N/c1cc(C)c(Oc2cc(-c3ccccc3)ns2)cc1C [No. 43, N′-{2,5-dimethyl-4-[(3-phenyl-1,2-thiazol-5-yl)oxy]phenyl}-N-ethyl-N-methylimidoformamide] | 2.11 |
| CCN(C)/C=N/c1cc(C)c(Oc2snc(-c3ccccc3)c2Cl)cc1C [No. 48, N′-{4-[(4-chloro-3-phenyl-1,2-thiazol-5-yl)oxy]-2,5-dimethylphenyl}-N-ethyl-N-methylimidoformamide] | 2.25 |
| CCN(C)/C=N/c1cc(Cl)c(Oc2snc(-c3ccccc3)c2Br)cc1C [No. 54, N′-{4-[(4-bromo-3-phenyl-1,2-thiazol-5-yl)oxy]-5-chloro-2-methylphenyl}-N-ethyl-N-methylimidoformamide] | 2.26 |

Same assay, conditions: reversed-phase HPLC column (C18); LC-MS, acidic range pH 2.7, 0.1% aqueous formic acid and acetonitrile; read-out: logP(HCO2H)

| Compound | chromatographic logP |
| --- | --- |
| Nc1snc(-c2ccccc2)c1Br [4-bromo-3-phenylisothiazol-5-amine] | 2.26 |
| Clc1snc(-c2ccccc2)c1Br [4-bromo-5-chloro-3-phenylisothiazole] | 4.41 |
| Nc1snc(-c2ccccc2)c1Cl [4-chloro-3-phenylisothiazol-5-amine] | 2.21 |
| N#Cc1c(Cc2ccc(Cl)cc2)nsc1N [5-amino-3-(4-chlorobenzyl)isothiazole-4-carbonitrile] | 2.4 |
| CC(C)(C)c1nsc(N)c1C#N [5-amino-3-tert-butylisothiazole-4-carbonitrile] | 2.4 |
